# In ChEMBL document CHEMBL1201862, “PubChem BioAssay data set” (2004):
# Active and inactive are the calls of the source.
# Legend:
# cells = format: functional
# [1] = microbe, parasite or virus in culture; format: functional; conditions: Mycobacterium tuberculosis
# [2] = target: FAD-linked sulfhydryl oxidase ALR (Homo sapiens, UniProt P55789); assay: inhibitors of human ALR sulfhydryl oxidase, dose response, biochemical, H2O2 detection, luminescence, cherry-pick (AID 493248)
# [3] = growth suppression of PTEN-null colon cells, dose response, cell-based, HCT116 PTEN knockout (AID 1047); format: functional;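 further: HCT116 colon tumor cells with PTEN knocked out; cells exposed to compound for 60 hours before readout; potency for loss of cell viability measured by luminescence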
# [4] = growth suppression of beta-catenin-knockout colon cells, dose response, cell-based, HCT116, human colon tumor (AID 1045); format: functional;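 further: HCT116 colon tumor cells with beta catenin knocked out; cells exposed to compound for 60 hours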
# Caspase-6 = target: T1, Caspase-6 (Homo sapiens, UniProt P55212); assay: human caspase-6 inhibitors, dose response, biochemical, VEID-R110 fluorescence, cherry-pick (AID 720632)
# T1 sequence (P55212 whole entry): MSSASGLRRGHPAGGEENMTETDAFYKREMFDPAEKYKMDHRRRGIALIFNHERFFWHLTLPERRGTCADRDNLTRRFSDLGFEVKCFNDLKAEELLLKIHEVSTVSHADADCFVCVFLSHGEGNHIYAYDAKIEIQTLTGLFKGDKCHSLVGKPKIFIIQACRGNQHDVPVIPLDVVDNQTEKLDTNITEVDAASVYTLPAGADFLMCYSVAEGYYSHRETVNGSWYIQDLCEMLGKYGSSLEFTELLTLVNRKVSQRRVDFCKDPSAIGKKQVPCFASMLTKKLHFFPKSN
# [5] = target: T2, High affinity choline transporter 1 (Homo sapiens, UniProt Q9GZV3); assay: CHT inhibitors, dose response, cell-based, 5-point CRC, membrane potential dye (AID 504840); format: functional
# T2 sequence (Q9GZV3 whole entry): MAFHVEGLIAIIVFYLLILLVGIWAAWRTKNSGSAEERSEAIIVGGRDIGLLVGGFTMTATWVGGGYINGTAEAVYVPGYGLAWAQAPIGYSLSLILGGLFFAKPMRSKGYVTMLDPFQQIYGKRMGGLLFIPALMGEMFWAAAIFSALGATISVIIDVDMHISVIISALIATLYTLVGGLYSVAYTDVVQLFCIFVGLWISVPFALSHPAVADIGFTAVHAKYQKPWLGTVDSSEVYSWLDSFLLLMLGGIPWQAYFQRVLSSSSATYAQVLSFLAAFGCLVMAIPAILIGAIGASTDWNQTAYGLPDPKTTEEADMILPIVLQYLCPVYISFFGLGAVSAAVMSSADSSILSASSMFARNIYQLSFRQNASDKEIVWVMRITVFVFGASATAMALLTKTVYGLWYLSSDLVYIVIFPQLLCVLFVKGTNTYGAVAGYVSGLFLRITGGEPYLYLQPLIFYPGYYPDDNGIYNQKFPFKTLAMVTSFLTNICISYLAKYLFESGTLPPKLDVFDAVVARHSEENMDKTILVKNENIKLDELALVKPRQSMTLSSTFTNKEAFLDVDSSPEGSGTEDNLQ
# [6] = target: T3, Polyadenylate-binding protein 1 (Homo sapiens, UniProt P11940); assay: PABP1 MLLE–PAM2 binding inhibitor potency, dose response, biochemical, fluorescence polarization, FITC-PAM2 peptide (AID 602259); format: functional; conditions: read-out: IC50_Mean
# T3 sequence (P11940 whole entry): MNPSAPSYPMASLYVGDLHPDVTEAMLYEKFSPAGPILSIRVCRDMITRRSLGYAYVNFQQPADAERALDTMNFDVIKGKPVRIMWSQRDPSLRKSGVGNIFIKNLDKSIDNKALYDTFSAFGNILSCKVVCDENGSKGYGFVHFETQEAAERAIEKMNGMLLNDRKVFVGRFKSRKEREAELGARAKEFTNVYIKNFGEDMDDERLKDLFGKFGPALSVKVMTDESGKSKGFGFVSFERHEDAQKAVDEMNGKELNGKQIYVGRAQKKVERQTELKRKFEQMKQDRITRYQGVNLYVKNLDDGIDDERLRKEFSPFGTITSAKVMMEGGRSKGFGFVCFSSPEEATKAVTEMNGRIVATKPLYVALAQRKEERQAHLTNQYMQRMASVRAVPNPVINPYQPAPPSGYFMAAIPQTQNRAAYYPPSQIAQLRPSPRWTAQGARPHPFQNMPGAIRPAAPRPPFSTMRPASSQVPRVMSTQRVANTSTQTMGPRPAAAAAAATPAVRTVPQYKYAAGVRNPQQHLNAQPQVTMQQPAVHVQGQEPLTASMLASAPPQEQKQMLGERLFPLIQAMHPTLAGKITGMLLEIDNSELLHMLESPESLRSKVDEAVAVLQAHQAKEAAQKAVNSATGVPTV
# [7] = target: T3, Polyadenylate-binding protein 1; assay: PABP1 MLLE–PAM2 interaction inhibitors, dose response, miRNA deadenylation inhibitor project, biochemical, fluorescence polarization, Cy5-PAM2 peptide, secondary (AID 602260); format: functional; conditions: read-out: IC50_Mean
# [8] = inhibitors of intracellular T. cruzi replication, confirmation, NIH3T3 host cells, beta-gal luminescence (AID 2044); format: functional, cell-based;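 further: intracellular parasites grown in NIH/3T3 mouse fibroblasts as host cells; luminescent beta-galactosidase reporter signal from transgenic T. cruzi replicating inside host cells; inhibitors lower the luminescence signal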
# [9] = cytotoxicity toward NIH3T3 fibroblasts, dose response, counter-screen, cell-based, ATP luminescence, mouse fibroblasts (AID 2010); format: functional;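 further: cells exposed to compound for about 90 hours before reading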
# [10] = target: Glucose-6-phosphate 1-dehydrogenase (Homo sapiens, UniProt P11413); assay: human G6PD enzyme inhibitors, dose response, selectivity assay for P. falciparum G6PD inhibitor project, biochemical, fluorescence (AID 504792); format: functional
# Sequence of Glucose-6-phosphate 1-dehydrogenase (P11413 whole entry): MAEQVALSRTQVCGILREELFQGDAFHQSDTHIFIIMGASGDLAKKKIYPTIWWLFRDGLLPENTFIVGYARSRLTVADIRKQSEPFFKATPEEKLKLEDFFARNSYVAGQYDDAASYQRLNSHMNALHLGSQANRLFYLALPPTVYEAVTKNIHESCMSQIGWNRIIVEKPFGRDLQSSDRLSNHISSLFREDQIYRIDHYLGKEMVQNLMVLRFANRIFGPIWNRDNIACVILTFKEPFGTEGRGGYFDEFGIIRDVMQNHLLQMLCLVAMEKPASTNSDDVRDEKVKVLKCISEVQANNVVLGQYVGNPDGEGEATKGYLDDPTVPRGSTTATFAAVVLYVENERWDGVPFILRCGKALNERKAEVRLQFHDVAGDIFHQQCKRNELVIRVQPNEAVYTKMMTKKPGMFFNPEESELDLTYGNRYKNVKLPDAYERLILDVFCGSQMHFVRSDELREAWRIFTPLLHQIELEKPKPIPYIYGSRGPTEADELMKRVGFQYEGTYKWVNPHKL
# [11] = target: T4, Calpain-2 catalytic subunit (Sus scrofa, UniProt P43367); assay: pig calpain II inhibitor potency, dose response, biochemical, fluorogenic peptide substrate (AID 1420); format: functional
# T4 sequence (P43367 whole entry): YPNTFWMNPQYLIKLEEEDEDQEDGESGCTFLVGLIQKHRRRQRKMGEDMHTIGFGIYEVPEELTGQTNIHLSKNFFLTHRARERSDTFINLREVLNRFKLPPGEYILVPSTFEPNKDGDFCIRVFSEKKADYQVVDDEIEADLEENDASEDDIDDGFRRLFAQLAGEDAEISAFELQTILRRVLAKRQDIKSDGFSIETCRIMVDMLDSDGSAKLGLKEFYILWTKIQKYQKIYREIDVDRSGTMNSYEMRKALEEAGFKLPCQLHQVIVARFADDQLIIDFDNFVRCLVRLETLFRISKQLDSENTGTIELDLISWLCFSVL
# Leucine aminopeptidase = target: T5, Leucine aminopeptidase (Plasmodium falciparum 3D7, UniProt Q8IL11); assay: P. falciparum M17LAP inhibitors, primary screen, biochemical, fluorogenic H-Leu-NHMec substrate, 1536-well (AID 1619); format: functional
# T5 sequence (Q8IL11 whole entry): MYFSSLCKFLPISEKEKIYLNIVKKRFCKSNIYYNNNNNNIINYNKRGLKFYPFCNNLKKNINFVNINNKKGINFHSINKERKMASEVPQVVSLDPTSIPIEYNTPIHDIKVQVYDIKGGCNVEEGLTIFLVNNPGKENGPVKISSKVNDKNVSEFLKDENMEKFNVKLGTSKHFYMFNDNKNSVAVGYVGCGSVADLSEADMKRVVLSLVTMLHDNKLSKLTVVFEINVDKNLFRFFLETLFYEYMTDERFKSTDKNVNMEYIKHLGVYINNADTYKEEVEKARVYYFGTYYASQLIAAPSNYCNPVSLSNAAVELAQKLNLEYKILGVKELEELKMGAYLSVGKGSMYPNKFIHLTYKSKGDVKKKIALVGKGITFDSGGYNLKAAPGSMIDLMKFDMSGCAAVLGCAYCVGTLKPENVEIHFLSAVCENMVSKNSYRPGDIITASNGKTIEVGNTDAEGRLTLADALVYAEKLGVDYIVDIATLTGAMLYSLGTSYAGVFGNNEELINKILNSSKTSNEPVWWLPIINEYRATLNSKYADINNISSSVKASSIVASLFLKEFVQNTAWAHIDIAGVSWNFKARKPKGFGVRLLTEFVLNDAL
# Vero = assay: cells; format: functional; conditions: Chlorocebus sabaeus
# [12] = inhibitors of SNCA 5'UTR-driven reporter translation, confirmation, H4 neuroglioma cells, luminescence (AID 1988); format: functional, cell-based
# [13] = inhibitors of firefly luciferase expression or activity, dose response, H4 neuroglioma cells, luminescence (AID 1990); format: functional, cell-based
# Sequence of FAD-linked sulfhydryl oxidase ALR (P55789 whole entry): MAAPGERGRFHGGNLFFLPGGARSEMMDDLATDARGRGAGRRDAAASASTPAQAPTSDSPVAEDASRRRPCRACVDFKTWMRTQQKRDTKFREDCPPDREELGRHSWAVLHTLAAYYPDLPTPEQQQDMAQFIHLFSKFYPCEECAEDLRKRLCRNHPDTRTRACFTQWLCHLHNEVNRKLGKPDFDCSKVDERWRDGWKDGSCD
compound,measurement,setting,value
Cc1ccc(-c2cc(C(F)(F)F)n3nc(C(=O)NCCCn4ccnc4)cc3n2)cc1C,IC50,cells,> 50 µM (active)
same,CC50,[1],> 40 µM (active)
Cc1ccc(CSC2=NCCN2C(=O)c2ccco2)cc1,AC50,[2],2.85 µM (active)
O=C(NN/C=C1\C(=O)N(Cc2ccccc2)C(=O)c2ccccc21)c1cccnc1,AC50,[2],3.35 µM (active)
Cc1nc(-c2ccc(NC(=O)CC(C)C)cc2)cs1,AC50,[2],2.38 µM (active)
Cc1ccc(CSc2nc3ccncc3n2CC(=O)Nc2cc(C)cc(C)c2)cc1,EC50,[3],26.3 µM (active)
same,EC50,[4],30.7 µM (active)
O=C(Nc1cccc(Cl)c1)c1cccc(N2C(=O)C3CC=CCC3C2=O)c1 (stereo not given),AC50,Caspase-6,9.42 µM (active)
Cc1ccnc(NS(=O)(=O)c2ccc(NC(=O)c3ccc(Cl)cc3[N+](=O)[O-])cc2)n1,IC50,[5],13.2 µM (active)
O=C(NC(=S)NC(CO)Cc1ccccc1)c1ccc(F)cc1 (stereo not given),IC50,[6],> 66 µM (inactive)
same,IC50,[7],> 66 µM (inactive)
O=S(=O)(c1ccc2[nH]c(-c3ccccc3)nc2c1)N1CCN(c2ccc(Cl)cc2)CC1,EC50,[3],4.83 µM (active)
same,EC50,[4],5.15 µM (active)
O=C(NC(N=C(S)Nc1c(Cl)cccc1Cl)C(Cl)(Cl)Cl)c1cccc([N+](=O)[O-])c1 (stereo not given),EC50,[8],2.22 µM (active)
same,EC50,[9],> 60 µM (not active)
same,EC50,[3],12.4 µM (active)
same,EC50,[4],16.2 µM (active)
O=C(CN1C(=O)C2C3C=CC(C3)C2C1=O)OCC(=O)c1ccc([N+](=O)[O-])cc1 (stereo not given),IC50,[10],> 80 µM (inactive)
CC(OC(=O)c1oc2ccccc2c1CSC1CCCCC1)C(=O)NC(N)=O (stereo not given),EC50,[3],24.9 µM (active)
same,EC50,[4],55.1 µM (active)
Nc1n[nH]c(N)c1N=Nc1ccc(F)cc1,AC50,[2],2.29 µM (active)
same,IC50,[11],30.8 µM (not active)
same,IC50,Leucine aminopeptidase,8.11 µM (active)
O=C1NC(c2ccccc2)=C(c2ccc3ccccc3n2)C(c2ccncc2)N1 (stereo not given),IC50,[5],4.57 µM (active)
Fc1ccc(CN2CC[C@H]3C=CCc4cccc(c43)C2)cc1,IC50,[6],> 66 µM (inactive)
same,IC50,[7],> 66 µM (inactive)
NC(=O)c1oc2ccccc2c1NC(=O)c1ccc([N+](=O)[O-])o1,CC50,Vero,5.74 µM (active)
same,EC50,[12],4.08 µM (active)
same,EC50,[13],8.49 µM (active)
O=C1/C(=C/c2cccc(Cl)c2)SC(=S)N1CCC(=O)N1CCCCC1CCO (stereo not given),CC50,Vero,19.9 µM (active)
